Measurements reported in the Kinase Knowledgebase extract (Sharma et al. 2016).

Biological target: PIK3CA (human) (UniProt P42336)
Test: Assessment of PIK3CA Kinase Activity

Sequence of PIK3CA (human) (P42336 whole entry, looked up): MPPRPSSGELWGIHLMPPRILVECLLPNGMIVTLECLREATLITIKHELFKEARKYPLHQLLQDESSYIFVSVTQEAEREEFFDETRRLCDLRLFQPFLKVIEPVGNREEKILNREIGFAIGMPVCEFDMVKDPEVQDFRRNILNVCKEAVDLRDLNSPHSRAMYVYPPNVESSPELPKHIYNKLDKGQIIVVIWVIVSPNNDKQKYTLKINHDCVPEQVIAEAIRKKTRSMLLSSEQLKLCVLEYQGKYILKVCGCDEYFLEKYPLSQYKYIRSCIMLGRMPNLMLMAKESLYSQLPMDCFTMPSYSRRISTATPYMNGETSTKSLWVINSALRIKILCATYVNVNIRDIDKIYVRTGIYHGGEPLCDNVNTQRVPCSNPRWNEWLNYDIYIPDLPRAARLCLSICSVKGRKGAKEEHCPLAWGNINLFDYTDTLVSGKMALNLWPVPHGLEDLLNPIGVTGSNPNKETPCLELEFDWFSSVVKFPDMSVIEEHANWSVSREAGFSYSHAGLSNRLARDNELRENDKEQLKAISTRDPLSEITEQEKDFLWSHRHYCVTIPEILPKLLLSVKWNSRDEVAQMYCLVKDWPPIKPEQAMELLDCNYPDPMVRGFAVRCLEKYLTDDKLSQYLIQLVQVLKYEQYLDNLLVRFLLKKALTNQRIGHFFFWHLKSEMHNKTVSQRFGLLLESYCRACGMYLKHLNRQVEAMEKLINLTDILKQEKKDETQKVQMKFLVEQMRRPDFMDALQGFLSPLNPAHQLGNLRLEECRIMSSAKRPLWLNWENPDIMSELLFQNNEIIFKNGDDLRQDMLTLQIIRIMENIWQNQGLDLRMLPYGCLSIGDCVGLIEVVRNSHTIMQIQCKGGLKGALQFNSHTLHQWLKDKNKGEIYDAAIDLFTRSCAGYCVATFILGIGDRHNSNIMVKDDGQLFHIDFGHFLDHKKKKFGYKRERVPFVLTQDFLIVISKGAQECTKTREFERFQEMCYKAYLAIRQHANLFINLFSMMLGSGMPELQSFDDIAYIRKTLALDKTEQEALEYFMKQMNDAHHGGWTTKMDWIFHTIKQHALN

Row | SMILES | IC50 [nM]
1 | CC(C)S(=O)(=O)Nc1cc2c(cc1Cl)CCc1nc(N)nc(-c3ccccc3)c1-2 | 25
2 | Nc1nc2c(c(-c3ccccc3)n1)-c1cc(NS(=O)(=O)c3ccccc3)c(Cl)cc1CC2 | 13
3 | Nc1nc2c(c(-c3ccncc3)n1)-c1cc(NS(=O)(=O)c3ccc4ccccc4c3)c(Cl)cc1CC2 | 405
4 | Nc1cccc(-c2nc(N)nc3c2-c2cc(S(=O)(=O)N4CCOCC4)c(Cl)cc2CC3)c1 | 6.3
5 | CC(=O)Nc1ccc(-c2nc(N)nc3c2-c2cc(S(=O)(=O)N4CCOCC4)c(Cl)cc2CC3)cc1 | 3.2
6 | Nc1nc2c(c(-c3ccccc3)n1)-c1cc(S(=O)(=O)N3CCOCC3)c(Cl)cc1CC2 | 3.2
7 | Cn1cc(-c2nc(N)nc3c2-c2cc(NS(=O)(=O)c4ccccc4)c(Cl)cc2CC3)cn1 | 5
8 | Nc1nc2c(c(-c3ccncc3)n1)-c1cc(NS(=O)(=O)c3ccccc3)c(Cl)cc1CC2 | 6.3
9 | Nc1nc2c(c(-c3cccnc3)n1)-c1cc(S(=O)(=O)N3CCOCC3)c(Cl)cc1CC2 | 20
10 | Nc1nc2c(c(=O)[nH]1)-c1ccc(Cl)cc1CC2 | 5010
11 | CC(=O)Nc1cccc(-c2nc(N)nc3c2-c2cc(S(=O)(=O)N4CCOCC4)c(Cl)cc2CC3)c1 | 25
12 | Nc1nc2c(c(-c3ccncc3)n1)-c1cc(S(=O)(=O)N3CCOCC3)c(Cl)cc1CC2 | 10
13 | Nc1nc2c(c(-c3ccccc3)n1)-c1cc(NS(=O)(=O)c3ccoc3)c(Cl)cc1CC2 | 16
14 | Cc1ccc(-c2nc(N)nc3c2-c2cc(S(=O)(=O)N4CCOCC4)c(Cl)cc2CC3)cc1 | 4
15 | Nc1nc2c(c(-c3ccc(F)cc3)n1)-c1cc(S(N)(=O)=O)c(Cl)cc1CC2 | 1.6
16 | N#Cc1ccc(S(=O)(=O)Nc2cc3c(cc2Cl)CCc2nc(N)nc(-c4ccncc4)c2-3)cc1 | 1.6
17 | CNC(=O)c1ccc(-c2nc(N)nc3c2-c2cc(S(=O)(=O)N4CCOCC4)c(Cl)cc2CC3)cc1 | 7.9
18 | Nc1nc2c(c(-c3ccc(F)cc3)n1)-c1cc(S(=O)(=O)N3CCOCC3)c(Cl)cc1CC2 | 6.3
19 | Nc1nc2c(c(-c3ccncc3)n1)-c1cc(NS(=O)(=O)c3cccs3)c(Cl)cc1CC2 | 3.2
20 | Nc1nc2c(c(-c3ccccc3F)n1)-c1cc(S(=O)(=O)N3CCOCC3)c(Cl)cc1CC2 | 13

Second part, the molecule after the results:

Row | IC50 [nM] | SMILES
21 | 1580 | Nc1nc2c(c(-c3ccccc3)n1)-c1cc(NC(=O)c3ccc(F)cc3F)c(Cl)cc1CC2
22 | 2.5 | Nc1nc2c(c(-c3ccc(F)cc3)n1)-c1cc(NS(=O)(=O)c3ccc(F)cc3F)c(Cl)cc1CC2
23 | 2 | COc1ccc(-c2nc(N)nc3c2-c2cc(NS(=O)(=O)c4ccc(F)cc4F)c(Cl)cc2CC3)cc1
24 | 7.9 | Nc1nc2c(c(-c3cccc(S(=O)(=O)N4CCOCC4)c3)n1)-c1cc(NS(=O)(=O)c3ccc(F)cc3F)c(Cl)cc1CC2
25 | 2.5 | Nc1nc2c(c(-c3ccc(S(=O)(=O)N4CCOCC4)cc3)n1)-c1cc(NS(=O)(=O)c3ccc(F)cc3F)c(Cl)cc1CC2
26 | 3.2 | CN(C)S(=O)(=O)c1cccc(-c2nc(N)nc3c2-c2cc(NS(=O)(=O)c4ccc(F)cc4F)c(Cl)cc2CC3)c1
27 | 1.3 | CS(=O)(=O)c1cccc(-c2nc(N)nc3c2-c2cc(NS(=O)(=O)c4ccc(F)cc4F)c(Cl)cc2CC3)c1
28 | 2 | NC(=O)c1cccc(-c2nc(N)nc3c2-c2cc(NS(=O)(=O)c4ccc(F)cc4F)c(Cl)cc2CC3)c1
29 | 2.5 | CS(=O)(=O)c1ccc(-c2nc(N)nc3c2-c2cc(NS(=O)(=O)c4ccc(F)cc4F)c(Cl)cc2CC3)cc1
30 | 1 | Nc1nc2c(c(-c3ccncc3)n1)-c1cc(NS(=O)(=O)c3ccc(F)cc3F)c(Cl)cc1CC2
31 | 1.6 | CNC(=O)c1ccc(-c2nc(N)nc3c2-c2cc(NS(=O)(=O)c4ccc(F)cc4F)c(Cl)cc2CC3)cc1
32 | 6.3 | Cn1cc(-c2nc(N)nc3c2-c2cc(NS(=O)(=O)c4ccc(F)cc4F)c(Cl)cc2CC3)cn1
33 | 202 | Cc1ccc([N+](=O)[O-])cc1S(=O)(=O)Nc1cc2c(cc1Cl)CCc1nc(N)nc(-c3ccncc3)c1-2
34 | 2.5 | CN(C)S(=O)(=O)c1ccc(-c2nc(N)nc3c2-c2cc(NS(=O)(=O)c4ccc(F)cc4F)c(Cl)cc2CC3)cc1
35 | 313 | N#Cc1cccc(S(=O)(=O)Nc2cc3c(cc2Cl)CCc2nc(N)nc(-c4ccncc4)c2-3)c1
36 | 13 | Nc1nc2c(c(-c3ccc(F)cc3)n1)-c1cc(NS(=O)(=O)c3ccccc3)c(Cl)cc1CC2
37 | 2.5 | CC(=O)Nc1ccc(-c2nc(N)nc3c2-c2cc(NS(=O)(=O)c4ccc(F)cc4F)c(Cl)cc2CC3)cc1
38 | 16 | CC(=O)Nc1cccc(-c2nc(N)nc3c2-c2cc(NS(=O)(=O)c4ccc(F)cc4F)c(Cl)cc2CC3)c1
39 | 4 | CNC(=O)c1cccc(-c2nc(N)nc3c2-c2cc(NS(=O)(=O)c4ccc(F)cc4F)c(Cl)cc2CC3)c1
40 | 4 | NC(=O)c1ccc(-c2nc(N)nc3c2-c2cc(NS(=O)(=O)c4ccc(F)cc4F)c(Cl)cc2CC3)cc1
41 | 32 | CC(C)S(=O)(=O)Nc1cc2c(cc1Cl)CCc1nc(N)nc(-c3ccc(F)cc3)c1-2
42 | 4 | Nc1nc2c(c(-c3ccccc3)n1)-c1cc(NS(=O)(=O)c3ccc(F)cc3F)c(Cl)cc1CC2
43 | 2.5 | Nc1nc2c(c(-c3ccncc3)n1)-c1cc(NS(=O)(=O)c3cccc(Cl)c3)c(Cl)cc1CC2
44 | 5 | COc1cccc(-c2nc(N)nc3c2-c2cc(NS(=O)(=O)c4ccc(F)cc4F)c(Cl)cc2CC3)c1
45 | 4 | Nc1nc2c(c(-c3cccc(F)c3)n1)-c1cc(NS(=O)(=O)c3ccc(F)cc3F)c(Cl)cc1CC2
46 | 20 | Nc1nc2c(c(-c3cccnc3)n1)-c1cc(NS(=O)(=O)c3ccc(F)cc3F)c(Cl)cc1CC2
